Experiments:
Type in all cases: cell-based
[1] = target: T1, human TLR7 (Homo sapiens, UniProt Q9NYK1); test: TLR7 inhibition reporter assay (HEK-Blue, SEAP); conditions: HEK-Blue cells overexpressing human TLR7, gardiquimod 7.5 μM, 22 hour incubation
T1 construct: host or cells: HEK-Blue cells
T1 sequence (Q9NYK1 27-1049): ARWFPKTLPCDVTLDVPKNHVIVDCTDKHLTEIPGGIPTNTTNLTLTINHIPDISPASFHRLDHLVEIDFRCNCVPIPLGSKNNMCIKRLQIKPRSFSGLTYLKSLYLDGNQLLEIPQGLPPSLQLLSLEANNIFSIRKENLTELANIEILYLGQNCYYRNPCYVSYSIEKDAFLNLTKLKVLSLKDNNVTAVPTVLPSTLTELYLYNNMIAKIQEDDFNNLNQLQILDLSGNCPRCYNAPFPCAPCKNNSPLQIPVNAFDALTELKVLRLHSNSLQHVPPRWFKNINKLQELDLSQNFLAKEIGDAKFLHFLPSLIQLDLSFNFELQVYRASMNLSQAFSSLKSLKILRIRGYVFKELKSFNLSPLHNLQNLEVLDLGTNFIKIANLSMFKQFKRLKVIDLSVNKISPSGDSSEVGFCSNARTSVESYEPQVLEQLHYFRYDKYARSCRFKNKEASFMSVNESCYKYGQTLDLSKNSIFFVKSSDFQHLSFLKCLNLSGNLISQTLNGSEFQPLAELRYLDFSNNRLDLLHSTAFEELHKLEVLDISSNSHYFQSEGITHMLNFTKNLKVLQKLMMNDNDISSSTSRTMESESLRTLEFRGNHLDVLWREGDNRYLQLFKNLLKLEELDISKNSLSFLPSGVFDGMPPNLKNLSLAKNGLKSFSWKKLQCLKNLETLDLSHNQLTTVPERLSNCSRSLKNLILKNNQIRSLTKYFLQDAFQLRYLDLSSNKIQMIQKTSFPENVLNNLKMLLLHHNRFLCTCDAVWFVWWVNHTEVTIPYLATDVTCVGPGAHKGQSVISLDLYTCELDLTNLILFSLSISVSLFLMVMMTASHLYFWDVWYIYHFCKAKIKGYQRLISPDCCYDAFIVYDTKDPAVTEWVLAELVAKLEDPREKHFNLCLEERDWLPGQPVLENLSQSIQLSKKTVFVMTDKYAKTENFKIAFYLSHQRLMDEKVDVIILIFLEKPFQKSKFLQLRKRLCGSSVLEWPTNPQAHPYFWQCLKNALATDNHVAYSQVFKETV
Experimental: (§1) TLR7/8/9 Inhibition Reporter Assays
(§2) HEK-Blue™-cells (Invivogen) overexpressing human TLR7, TLR8 or TLR9 receptors were used for screening inhibitors of these receptors using an inducible SEAP (secreted embryonic alkaline phosphatase) reporter gene under the control of the IFN-β minimal promoter fused to five NF-κB and AP-1-binding sites. Briefly, cells are seeded into Greiner 384 well plates (15000 cells per well for TLR7, 20,000 for TLR8 and 25,000 for TLR9) and then treated with test compounds in DMSO to yield a final dose response concentration range of 0.05 nM-50 μM. After a 30 minute compound pre-treatment at room temperature, the cells are then stimulated with a TLR7 ligand (gardiquimod at a final concentration of 7.5 μM), TLR8 ligand (R848 at a final concentration of 15.9 μM) or TLR9 ligand (ODN2006 at a final concentration of 5 nM) to activate NF-κB and AP-1 which induce the production of SEAP. After a 22 hour incubation at 37° C., 5% CO2, SEAP levels are determined with the addition of HEK-Blue™ Detection reagent (Invivogen), a cell culture medium that allows for detection of SEAP, according to manufacturer's specifications. The percent inhibition is determined as the % reduction in the HEK-Blue signal present in wells treated with agonist plus DMSO alone compared to wells treated with a known inhibitor.

[2] = target: T2, human TLR9 (Homo sapiens, UniProt Q9NR96); test: TLR9 inhibition reporter assay (HEK-Blue, SEAP); conditions: HEK-Blue cells overexpressing human TLR9, ODN2006 5 nM, 22 hour incubation
T2 construct: host or cells: HEK-Blue cells
T2 sequence (Q9NR96 26-1032): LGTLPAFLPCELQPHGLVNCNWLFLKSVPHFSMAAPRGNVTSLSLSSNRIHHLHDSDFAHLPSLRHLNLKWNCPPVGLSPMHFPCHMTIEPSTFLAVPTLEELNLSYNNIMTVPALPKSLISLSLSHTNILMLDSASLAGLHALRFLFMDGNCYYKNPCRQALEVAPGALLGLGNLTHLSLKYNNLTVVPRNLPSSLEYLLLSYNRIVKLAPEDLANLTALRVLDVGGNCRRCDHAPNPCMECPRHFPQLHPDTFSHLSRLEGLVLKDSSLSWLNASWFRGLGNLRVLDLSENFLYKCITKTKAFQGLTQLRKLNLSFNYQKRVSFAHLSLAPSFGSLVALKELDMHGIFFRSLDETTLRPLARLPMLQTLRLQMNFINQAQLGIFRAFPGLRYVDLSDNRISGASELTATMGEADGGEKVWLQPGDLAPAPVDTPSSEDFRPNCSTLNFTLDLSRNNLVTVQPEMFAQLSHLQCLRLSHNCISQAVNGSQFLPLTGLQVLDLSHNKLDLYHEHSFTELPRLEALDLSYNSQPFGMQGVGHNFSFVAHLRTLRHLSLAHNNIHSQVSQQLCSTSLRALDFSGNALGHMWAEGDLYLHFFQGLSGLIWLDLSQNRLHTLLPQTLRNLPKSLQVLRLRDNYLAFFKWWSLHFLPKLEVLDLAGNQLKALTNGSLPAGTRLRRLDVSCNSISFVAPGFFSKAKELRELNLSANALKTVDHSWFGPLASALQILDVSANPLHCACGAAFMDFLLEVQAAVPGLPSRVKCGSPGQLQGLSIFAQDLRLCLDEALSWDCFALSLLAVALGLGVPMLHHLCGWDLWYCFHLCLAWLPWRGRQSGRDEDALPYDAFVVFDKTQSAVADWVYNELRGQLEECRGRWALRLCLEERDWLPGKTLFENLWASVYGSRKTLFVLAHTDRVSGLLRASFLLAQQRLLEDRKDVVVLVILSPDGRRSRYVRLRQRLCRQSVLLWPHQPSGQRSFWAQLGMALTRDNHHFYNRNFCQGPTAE
Experimental: as §1, §2

[3] = target: T3, human TLR8 (Homo sapiens, UniProt Q9NR97); test: TLR8 inhibition reporter assay (HEK-Blue, SEAP); conditions: HEK-Blue cells overexpressing human TLR8, R848 15.9 μM, 22 hour incubation
T3 construct: host or cells: HEK-Blue cells
T3 sequence (Q9NR97 27-1041): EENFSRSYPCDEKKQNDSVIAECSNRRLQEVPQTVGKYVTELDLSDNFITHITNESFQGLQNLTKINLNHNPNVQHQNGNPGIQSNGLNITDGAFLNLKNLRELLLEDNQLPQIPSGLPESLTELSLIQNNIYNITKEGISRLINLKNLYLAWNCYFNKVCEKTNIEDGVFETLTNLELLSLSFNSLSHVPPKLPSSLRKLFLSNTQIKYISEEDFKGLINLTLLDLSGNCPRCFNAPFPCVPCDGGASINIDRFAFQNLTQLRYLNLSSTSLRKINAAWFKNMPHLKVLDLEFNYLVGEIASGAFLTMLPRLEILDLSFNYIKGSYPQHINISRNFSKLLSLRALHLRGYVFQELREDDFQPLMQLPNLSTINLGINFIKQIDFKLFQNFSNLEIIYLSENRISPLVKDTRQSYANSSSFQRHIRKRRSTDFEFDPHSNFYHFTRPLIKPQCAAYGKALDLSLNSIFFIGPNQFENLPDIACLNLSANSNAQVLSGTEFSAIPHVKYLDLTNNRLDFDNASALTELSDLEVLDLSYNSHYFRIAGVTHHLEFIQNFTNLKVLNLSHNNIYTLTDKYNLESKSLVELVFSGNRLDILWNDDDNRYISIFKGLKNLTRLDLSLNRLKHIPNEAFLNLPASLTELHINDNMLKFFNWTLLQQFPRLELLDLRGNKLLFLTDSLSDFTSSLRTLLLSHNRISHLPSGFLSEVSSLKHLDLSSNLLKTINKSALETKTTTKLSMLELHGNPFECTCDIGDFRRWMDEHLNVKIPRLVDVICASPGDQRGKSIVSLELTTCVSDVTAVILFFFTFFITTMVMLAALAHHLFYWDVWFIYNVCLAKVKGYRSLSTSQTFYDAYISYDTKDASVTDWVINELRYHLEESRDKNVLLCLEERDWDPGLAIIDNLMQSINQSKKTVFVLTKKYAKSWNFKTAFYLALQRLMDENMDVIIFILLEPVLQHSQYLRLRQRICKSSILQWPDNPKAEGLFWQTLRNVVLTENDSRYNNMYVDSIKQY
Experimental: as §1, §2

| Structure (SMILES) | IC50 [1] | IC50 [2] | IC50 [3] |
| --- | --- | --- | --- |
| CNC(=O)CN1CCC(c2ccc3[nH]c(-c4ccc5nncn5c4)c(C(C)C)c3c2)CC1 [Example 13, 2-(4-(2-([1,2,4]triazolo[4,3-a]pyridin-6-yl)-3-isopropyl-1H-indol-5-yl)piperidin-1-yl)-N-methylacetamide] | 6.8 nM | 1110 nM | 98 nM |
| CC(C)c1c(-c2ccc3nncn3c2)[nH]c2ccc(C3CCN(CC(=O)N(C)C)CC3)cc12 [Example 14, 2-(4-(2-([1,2,4]triazolo[4,3-a]pyridin-6-yl)-3-isopropyl-1H-indol-5-yl)piperidin-1-yl)-N,N-dimethylacetamide] | 31.8 nM | 222 nM | 308 nM |
| CNC(=O)CN1CCC(c2ccc3[nH]c(-c4cn5cnnc5cc4C)c(C(C)C)c3c2)CC1 [Example 15, 2-(4-(3-isopropyl-2-(7-methyl-[1,2,4]triazolo[4,3-a]pyridin-6-yl)-1H-indol-5-yl)piperidin-1-yl)-N-methylacetamide] | 15 nM | 1100 nM | 245 nM |
| CNC(=O)CN1CCC(c2ccc3[nH]c(-c4cc(C)c5nncn5c4)c(C(C)C)c3c2)CC1 [Example 16, 2-(4-(3-isopropyl-2-(8-methyl-[1,2,4]triazolo[4,3-a]pyridin-6-yl)-1H-indol-5-yl)piperidin-1-yl)-N-methylacetamide] | 2 nM | 2520 nM | 10.2 nM |
| CNC(=O)CN1CCC(c2ccc3[nH]c(-c4ccc5nnc(C)n5c4)c(C(C)C)c3c2)CC1 [Example 17, 2-(4-(3-isopropyl-2-(3-methyl-[1,2,4]triazolo[4,3-a]pyridin-6-yl)-1H-indol-5-yl)piperidin-1-yl)-N-methylacetamide] | 44.7 nM | 2770 nM | 31.4 nM |
| Cc1cc2nncn2cc1-c1[nH]c2ccc(C3CCN(CC(=O)N(C)C)CC3)cc2c1C(C)C [Example 18, 2-(4-(3-isopropyl-2-(7-methyl-[1,2,4]triazolo[4,3-a]pyridin-6-yl)-1H-indol-5-yl)piperidin-1-yl)-N,N-dimethylacetamide] | 65.9 nM | 685 nM | 715 nM |
| Cc1nnc2ccc(-c3[nH]c4ccc(C5CCN(CC(=O)N(C)C)CC5)cc4c3C(C)C)cn12 [Example 19, 2-(4-(3-isopropyl-2-(3-methyl-[1,2,4]triazolo[4,3-a]pyridin-6-yl)-1H-indol-5-yl)piperidin-1-yl)-N,N-dimethylacetamide] | 48.6 nM | 1660 nM | 29.6 nM |

Continued, values first:

| IC50 [1] | IC50 [2] | IC50 [3] | Structure (SMILES) |
| --- | --- | --- | --- |
| 69.6 nM | 19600 nM | 408 nM | Cc1cc2nncn2cc1-c1[nH]c2ccc(C3CCN(Cc4ncn(C)n4)CC3)cc2c1C(C)C [Example 20, 6-(3-isopropyl-5-(1-((1-methyl-1H-1,2,4-triazol-3-yl)methyl)piperidin-4-yl)-1H-indol-2-yl)-7-methyl-[1,2,4] triazolo[4,3-a]pyridine] |
| 3.9 nM | 4670 nM | 10.1 nM | Cc1cc(-c2[nH]c3ccc(C4CCN(Cc5ncn(C)n5)CC4)cc3c2C(C)C)cn2cnnc12 [Example 21, 6-(3-isopropyl-5-(1-((1-methyl-1H-1,2,4-triazol-3-yl)methyl)piperidin-4-yl)-1H-indol-2-yl)-8-methyl-[1,2,4]triazolo[4,3-a]pyridine] |
| 136 nM | ≥ 50000 nM | 17.6 nM | Cc1nnc2ccc(-c3[nH]c4ccc(C5CCN(Cc6ncn(C)n6)CC5)cc4c3C(C)C)cn12 [Example 22, 6-(3-isopropyl-5-(1-((1-methyl-1H-1,2,4-triazol-3-yl)methyl)piperidin-4-yl)-1H-indol-2-yl)-3-methyl-[1,2,4]triazolo[4,3-a]pyridine] |
| 54.9 nM | ≥ 50000 nM | 375 nM | CC(C)c1c(-c2ccc3nncn3c2)[nH]c2ccc(C3CCN(Cc4ncn(C)n4)CC3)cc12 [Example 23, 6-(3-isopropyl-5-(1-((1-methyl-1H-1,2,4-triazol-3-yl)methyl)piperidin-4-yl)-1H-indol-2-yl)-[1,2,4]triazolo[4,3-a]pyridine] |
| 40.8 nM | 8930 nM | 31.9 nM | CNC(=O)CN1CCC(c2ccc3[nH]c(-c4ccc5nncn5c4C)c(C(C)C)c3c2)CC1 [Example 24, 2-(4-(3-isopropyl-2-(5-methyl-[1,2,4]triazolo[4,3-a]pyridin-6-yl)-1H-indol-5-yl)piperidin-1-yl)-N-methylacetamide] |

From patent US11130756B2, “[1,2,4]Triazolo[4,3-A]pyridinyl substituted indole compounds” (BRISTOL-MYERS SQUIBB COMPANY, priority 2017, dated 2021)
